Experimental data as given in ChEMBL document CHEMBL1137831, “Synthesis and antibacterial activity of some aryloxy/thioaryloxy oxazolidinone derivatives” (2004).
≈ marks a conversion by molar mass, not a printed value.

Experiments:
Serratia marcescens = experiment: Minimal inhibitory concentration against Serratia marcescens ATCC 12999; assay type: functional
Enterococcus faecium = experiment: Minimal inhibitory concentration against Enterococcus faecium 6A-VRE; assay type: functional
Staphylococcus aureus [1] = experiment: Minimal inhibitory concentration against Staphylococcus aureus ATCC 25923; assay type: functional
Enterococcus durans = experiment: Minimal inhibitory concentration against Enterococcus durans ATCC 581; assay type: functional
[2] = tested on: Staphylococcus epidermidis; experiment: Minimal inhibitory concentration against methicillin resistant Staphylococcus epidermidis ATCC 23760; assay type: functional
Bacillus cereus = experiment: Minimal inhibitory concentration against Bacillus cereus; assay type: functional
Pseudomonas aeruginosa = experiment: Minimal inhibitory concentration against Pseudomonas aeruginosa ATCC 27853; assay type: functional
Enterococcus faecalis [3] = experiment: Minimal inhibitory concentration against Enterococcus faecalis ATCC 29212; assay type: functional
Escherichia coli = experiment: Minimal inhibitory concentration against Escherichia coli ATCC 25922; assay type: functional
[4] = tested on: Staphylococcus epidermidis; experiment: Minimal inhibitory concentration against Staphylococcus epidermidis ATCC 12228; assay type: functional
Staphylococcus aureus [5] = experiment: Minimal inhibitory concentration against methicillin resistant Staphylococcus aureus ST450; assay type: functional
Salmonella typhi = experiment: Minimal inhibitory concentration against Salmonella typhi (MDR) ICH 098; assay type: functional, Salmonella enterica subsp. enterica serovar Typhi; settings: Salmonella enterica
Klebsiella pneumoniae = experiment: Minimal inhibitory concentration against Klebsiella pneumoniae ATCC 15380; assay type: functional
Enterococcus faecalis [6] = experiment: Minimal inhibitory concentration against Enterococcus faecalis (VRE) ATCC 346-VRE; assay type: functional
[7] = tested on: Salmonella enterica subsp. enterica serovar Abony; experiment: Minimal inhibitory concentration against Salmonella abony NCTC 6017; assay type: functional
Staphylococcus aureus [8] = experiment: Minimal inhibitory concentration against methicillin resistant Staphylococcus aureus ST450; value ranges from 4-8 ug/mL; assay type: functional
Staphylococcus aureus [9] = experiment: Minimal inhibitory concentration against Staphylococcus aureus ATCC 25923; value ranges from 4-8 ug/mL; assay type: functional
Staphylococcus aureus [10] = experiment: Minimal inhibitory concentration against methicillin resistant Staphylococcus aureus ST450; value ranges from 2-4 ug/mL; assay type: functional
Staphylococcus aureus [11] = experiment: Minimal inhibitory concentration against methicillin resistant Staphylococcus aureus ST450; value ranges from 1-2 ug/mL; assay type: functional
Staphylococcus aureus [12] = experiment: Minimal inhibitory concentration against methicillin resistant Staphylococcus aureus ST450; value ranges from 4-16 ug/mL; assay type: functional

SMILES	MIC (Serratia marcescens)	MIC (Enterococcus faecium)	MIC (Staphylococcus aureus [1])	MIC (Enterococcus durans)	MIC [2]	MIC (Bacillus cereus)	MIC (Pseudomonas aeruginosa)	MIC (Enterococcus faecalis [3])	MIC (Escherichia coli)	MIC [4]	MIC (Staphylococcus aureus [5])	MIC (Salmonella typhi)	MIC (Klebsiella pneumoniae)	MIC (Enterococcus faecalis [6])	MIC [7]	MIC (Staphylococcus aureus [8])	MIC (Staphylococcus aureus [9])	MIC (Staphylococcus aureus [10])	MIC (Staphylococcus aureus [11])	MIC (Staphylococcus aureus [12])
CC(=O)Nc1ccc(Oc2ccc(N3C[C@H](C/N=C(/S)N(C)C)OC3=O)cc2F)cc1	> 16 µg/mL	> 16 µg/mL	16 µg/mL (≈ 35.8 µM)	16 µg/mL (≈ 35.8 µM)	16 µg/mL (≈ 35.8 µM)	> 16 µg/mL	> 16 µg/mL	16 µg/mL (≈ 35.8 µM)	> 16 µg/mL	16 µg/mL (≈ 35.8 µM)	16 µg/mL (≈ 35.8 µM)	> 16 µg/mL	> 16 µg/mL	16 µg/mL (≈ 35.8 µM)	> 16 µg/mL	–	–	–	–	–
CC(=O)NC[C@H]1CN(c2ccc(N3CCOCC3)c(F)c2)C(=O)O1 [LINEZOLID]	> 16 µg/mL	2 µg/mL (≈ 5.93 µM)	–	2 µg/mL (≈ 5.93 µM)	2 µg/mL (≈ 5.93 µM)	> 16 µg/mL	> 16 µg/mL	–	> 16 µg/mL	2 µg/mL (≈ 5.93 µM)	–	> 16 µg/mL	> 16 µg/mL	–	> 16 µg/mL	–	–	–	–	–
CC(=O)NC[C@H]1CN(c2ccc(Oc3cccc(NC(C)=O)c3)c(F)c2)C(=O)O1	> 16 µg/mL	> 16 µg/mL	> 16 µg/mL	> 16 µg/mL	> 16 µg/mL	> 16 µg/mL	> 16 µg/mL	> 16 µg/mL	> 16 µg/mL	> 16 µg/mL	> 16 µg/mL	> 16 µg/mL	> 16 µg/mL	> 16 µg/mL	> 16 µg/mL	–	–	–	–	–
CO/C(S)=N\C[C@H]1CN(c2ccc(Oc3ccc(NC(C)=O)cc3)c(F)c2)C(=O)O1	> 16 µg/mL	16 µg/mL (≈ 36.9 µM)	8 µg/mL (≈ 18.5 µM)	8 µg/mL (≈ 18.5 µM)	16 µg/mL (≈ 36.9 µM)	> 16 µg/mL	> 16 µg/mL	8 µg/mL (≈ 18.5 µM)	> 16 µg/mL	8 µg/mL (≈ 18.5 µM)	16 µg/mL (≈ 36.9 µM)	> 16 µg/mL	> 16 µg/mL	8 µg/mL (≈ 18.5 µM)	> 16 µg/mL	–	–	–	–	–
CC(=O)Nc1ccc(Sc2ccc(N3C[C@H](C/N=C(/S)N(C)C)OC3=O)cc2F)cc1	> 16 µg/mL	> 16 µg/mL	16 µg/mL (≈ 34.6 µM)	16 µg/mL (≈ 34.6 µM)	16 µg/mL (≈ 34.6 µM)	> 16 µg/mL	> 16 µg/mL	8 µg/mL (≈ 17.3 µM)	> 16 µg/mL	16 µg/mL (≈ 34.6 µM)	> 16 µg/mL	> 16 µg/mL	> 16 µg/mL	16 µg/mL (≈ 34.6 µM)	> 16 µg/mL	–	–	–	–	–
CC(=O)Nc1ccc(Oc2ccc(N3C[C@H](C/N=C(/S)NC4CC4)OC3=O)cc2F)cc1	> 16 µg/mL	> 16 µg/mL	> 16 µg/mL	16 µg/mL (≈ 34.9 µM)	16 µg/mL (≈ 34.9 µM)	> 16 µg/mL	> 16 µg/mL	8 µg/mL (≈ 17.4 µM)	> 16 µg/mL	16 µg/mL (≈ 34.9 µM)	16 µg/mL (≈ 34.9 µM)	> 16 µg/mL	> 16 µg/mL	16 µg/mL (≈ 34.9 µM)	> 16 µg/mL	–	–	–	–	–
CC(=O)NC[C@H]1CN(c2ccc(Oc3ccccc3NC(C)=O)c(F)c2)C(=O)O1	> 16 µg/mL	> 16 µg/mL	> 16 µg/mL	> 16 µg/mL	> 16 µg/mL	> 16 µg/mL	> 16 µg/mL	> 16 µg/mL	> 16 µg/mL	> 16 µg/mL	> 16 µg/mL	> 16 µg/mL	> 16 µg/mL	> 16 µg/mL	> 16 µg/mL	–	–	–	–	–
CC(=O)Nc1ccc(Sc2ccc(N3C[C@H](C/N=C(/S)NN)OC3=O)cc2F)cc1	> 16 µg/mL	16 µg/mL (≈ 35.6 µM)	4 µg/mL (≈ 8.9 µM)	8 µg/mL (≈ 17.8 µM)	4 µg/mL (≈ 8.9 µM)	> 16 µg/mL	> 16 µg/mL	4 µg/mL (≈ 8.9 µM)	> 16 µg/mL	4 µg/mL (≈ 8.9 µM)	–	> 16 µg/mL	> 16 µg/mL	8 µg/mL (≈ 17.8 µM)	> 16 µg/mL	8 µg/mL (≈ 17.8 µM)	–	–	–	–
CO/C(S)=N\C[C@H]1CN(c2ccc(Sc3ccc(NC(C)=O)cc3)c(F)c2)C(=O)O1	> 16 µg/mL	4 µg/mL (≈ 8.9 µM)	–	4 µg/mL (≈ 8.9 µM)	8 µg/mL (≈ 17.8 µM)	> 16 µg/mL	> 16 µg/mL	4 µg/mL (≈ 8.9 µM)	> 16 µg/mL	4 µg/mL (≈ 8.9 µM)	–	> 16 µg/mL	> 16 µg/mL	8 µg/mL (≈ 17.8 µM)	> 16 µg/mL	8 µg/mL (≈ 17.8 µM)	8 µg/mL (≈ 17.8 µM)	–	–	–
CC(=O)NC[C@H]1CN(c2ccc(Oc3ccc(NC(C)=O)cc3)c(F)c2)C(=O)O1	> 16 µg/mL	4 µg/mL (≈ 9.97 µM)	2 µg/mL (≈ 4.98 µM)	4 µg/mL (≈ 9.97 µM)	4 µg/mL (≈ 9.97 µM)	> 16 µg/mL	> 16 µg/mL	4 µg/mL (≈ 9.97 µM)	> 16 µg/mL	2 µg/mL (≈ 4.98 µM)	–	> 16 µg/mL	> 16 µg/mL	4 µg/mL (≈ 9.97 µM)	> 16 µg/mL	–	–	4 µg/mL (≈ 9.97 µM)	–	–
CC(=O)Nc1ccc(Sc2ccc(N3C[C@H](C/N=C(\N)S)OC3=O)cc2F)cc1	> 16 µg/mL	2 µg/mL (≈ 4.6 µM)	1 µg/mL (≈ 2.3 µM)	2 µg/mL (≈ 4.6 µM)	2 µg/mL (≈ 4.6 µM)	> 16 µg/mL	> 16 µg/mL	2 µg/mL (≈ 4.6 µM)	> 16 µg/mL	1 µg/mL (≈ 2.3 µM)	–	> 16 µg/mL	> 16 µg/mL	2 µg/mL (≈ 4.6 µM)	> 16 µg/mL	–	–	–	2 µg/mL (≈ 4.6 µM)	–
CC(=O)Nc1ccc(Oc2ccc(N3C[C@H](C/N=C(\N)S)OC3=O)cc2F)cc1	> 16 µg/mL	4 µg/mL (≈ 9.56 µM)	2 µg/mL (≈ 4.78 µM)	2 µg/mL (≈ 4.78 µM)	4 µg/mL (≈ 9.56 µM)	> 16 µg/mL	> 16 µg/mL	4 µg/mL (≈ 9.56 µM)	> 16 µg/mL	2 µg/mL (≈ 4.78 µM)	–	> 16 µg/mL	> 16 µg/mL	4 µg/mL (≈ 9.56 µM)	> 16 µg/mL	–	–	4 µg/mL (≈ 9.56 µM)	–	–
CC(=O)NC[C@H]1CN(c2ccc(Sc3ccc(NC(C)=O)cc3)c(F)c2)C(=O)O1	> 16 µg/mL	2 µg/mL (≈ 4.79 µM)	1 µg/mL (≈ 2.4 µM)	2 µg/mL (≈ 4.79 µM)	2 µg/mL (≈ 4.79 µM)	> 16 µg/mL	> 16 µg/mL	2 µg/mL (≈ 4.79 µM)	> 16 µg/mL	1 µg/mL (≈ 2.4 µM)	–	> 16 µg/mL	> 16 µg/mL	2 µg/mL (≈ 4.79 µM)	> 16 µg/mL	–	–	–	2 µg/mL (≈ 4.79 µM)	–
CC(=O)Nc1ccc(Sc2ccc(N3C[C@H](C/N=C(/S)NC4CC4)OC3=O)cc2F)cc1	> 16 µg/mL	8 µg/mL (≈ 16.9 µM)	16 µg/mL (≈ 33.7 µM)	8 µg/mL (≈ 16.9 µM)	8 µg/mL (≈ 16.9 µM)	> 16 µg/mL	> 16 µg/mL	8 µg/mL (≈ 16.9 µM)	> 16 µg/mL	8 µg/mL (≈ 16.9 µM)	16 µg/mL (≈ 33.7 µM)	> 16 µg/mL	> 16 µg/mL	> 16 µg/mL	> 16 µg/mL	–	–	–	–	–
CC(=O)Nc1ccc(Oc2ccc(N3C[C@H](C/N=C(/S)NN)OC3=O)cc2F)cc1	> 16 µg/mL	4 µg/mL (≈ 9.23 µM)	4 µg/mL (≈ 9.23 µM)	4 µg/mL (≈ 9.23 µM)	8 µg/mL (≈ 18.5 µM)	> 16 µg/mL	> 16 µg/mL	4 µg/mL (≈ 9.23 µM)	> 16 µg/mL	4 µg/mL (≈ 9.23 µM)	–	> 16 µg/mL	> 16 µg/mL	8 µg/mL (≈ 18.5 µM)	> 16 µg/mL	–	–	–	–	16 µg/mL (≈ 36.9 µM)
